Here are results for 15 compounds from ChEMBL document CHEMBL5465560, “Selectivity Literature for EUbOPEN Chemogenomic Library” (2024).

Each structure is given as a SMILES string. pIC50: −log10 of the molar value.

The target in assay [1] is Mast/stem cell growth factor receptor Kit (Homo sapiens, UniProt P10721). The experiment in a line: Selectivity interaction (Ambit KINOMEscan and KiNATiv profiling in Jurkat cells) EUB0000090b KIT. The conditions noted are these: at 1 µM. The format is cell-based.
For assay [2], the target named is T1, Dual specificity mitogen-activated protein kinase kinase 4 (Homo sapiens) (UniProt P45985).
T1 sequence (whole entry): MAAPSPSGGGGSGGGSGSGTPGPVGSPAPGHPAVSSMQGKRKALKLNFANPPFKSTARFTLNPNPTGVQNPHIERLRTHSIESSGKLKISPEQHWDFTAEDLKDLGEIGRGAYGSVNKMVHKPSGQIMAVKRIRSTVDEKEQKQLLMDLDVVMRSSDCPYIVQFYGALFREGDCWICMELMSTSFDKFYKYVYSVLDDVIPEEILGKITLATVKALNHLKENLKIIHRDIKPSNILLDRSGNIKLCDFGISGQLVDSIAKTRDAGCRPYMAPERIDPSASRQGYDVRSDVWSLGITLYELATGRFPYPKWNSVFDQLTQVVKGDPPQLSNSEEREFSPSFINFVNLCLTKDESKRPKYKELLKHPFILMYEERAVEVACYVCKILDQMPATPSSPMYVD
The experiment in a line: Selectivity interaction (KinomeScan (DiscoverX)) EUB0000607a MAP2K4. The conditions noted are these: at 10 µM.

Assay [3] deals with Rho-associated protein kinase 2 (Homo sapiens, UniProt O75116). The experiment in a line: Selectivity interaction (SelectScreen profiling (Invitrogen)) EUB0000607a ROCK2. The conditions noted are these: at 2 µM.
Assay [4] concerns the target T2, Dual specificity tyrosine-phosphorylation-regulated kinase 2 (Homo sapiens) (UniProt Q92630).
T2 sequence (whole entry): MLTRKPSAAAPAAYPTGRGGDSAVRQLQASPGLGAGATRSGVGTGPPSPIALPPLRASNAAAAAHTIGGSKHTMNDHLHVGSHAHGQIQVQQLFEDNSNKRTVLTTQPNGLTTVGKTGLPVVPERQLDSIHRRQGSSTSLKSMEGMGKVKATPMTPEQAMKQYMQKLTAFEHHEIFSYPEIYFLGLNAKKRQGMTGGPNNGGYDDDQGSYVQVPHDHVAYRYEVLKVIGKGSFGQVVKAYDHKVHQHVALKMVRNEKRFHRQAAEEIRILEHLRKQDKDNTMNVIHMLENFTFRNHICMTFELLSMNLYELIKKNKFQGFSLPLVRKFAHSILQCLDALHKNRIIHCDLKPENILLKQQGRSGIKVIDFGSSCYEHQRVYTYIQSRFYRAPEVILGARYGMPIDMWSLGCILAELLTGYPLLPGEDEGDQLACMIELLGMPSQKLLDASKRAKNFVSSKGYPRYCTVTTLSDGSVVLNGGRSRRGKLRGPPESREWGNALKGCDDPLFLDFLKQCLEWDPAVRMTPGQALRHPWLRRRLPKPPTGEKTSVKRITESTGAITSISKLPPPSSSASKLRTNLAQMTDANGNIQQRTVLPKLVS
The assay can be described thus: Selectivity interaction (KinomeScan (DiscoverX)) EUB0000666a DYRK2. The conditions noted are these: at 10 µM.

Assay [5] concerns Epidermal growth factor receptor (Homo sapiens), P00533 [UNDEFINED MUTATION]. The experiment in a line: Selectivity interaction (KinomeScan (DiscoverX)) EUB0000655a EGFR. The conditions noted are these: at 10 µM.
Assay [6] has as its target Macrophage colony-stimulating factor 1 receptor (Homo sapiens) (UniProt P07333). The assay can be described thus: Selectivity interaction (KinomeScan (DiscoverX)) EUB0001079a CSF1R. The settings on record: at 1 µM.
The target in assay [7] is Serine/threonine-protein kinase 25 (Homo sapiens) (UniProt O00506). The assay can be described thus: Selectivity interaction (ActivX KiNativ screen (ex vivo kinase selectivity in human PBMCs)) EUB0001619a STK25. The format is cell-based. The conditions noted are these: PBMC, at 1 µM.
The target of assay [8] is Interferon-induced, double-stranded RNA-activated protein kinase (Homo sapiens) (UniProt P19525). The assay can be described thus: Selectivity interaction (ActivX KiNativ screen (ex vivo kinase selectivity in human PBMCs)) EUB0001619a EIF2AK2. The format is cell-based. The conditions noted are these: PBMC, at 1 µM.
Assay [9] addresses Cyclin-dependent kinase 11A (Homo sapiens, UniProt Q9UQ88). The assay can be described thus: Selectivity interaction (Kinase panel (Invitrogen, enzymatic assay)) EUB0000162b CDK11A.
For assay [10], the target named is Tyrosine-protein kinase SYK (Homo sapiens, UniProt P43405). The experiment in a line: Selectivity interaction (ActivX KiNativ screen (kinase selectivity in THP-1 cell lysates)) EUB0000639a SYK. The assay is classed as subcellular. The conditions noted are these: lysate, at 0.01 µM.
For assay [11], the target named is T3, Scaffold protein ILK (Homo sapiens) (UniProt Q13418).
T3 sequence (whole entry): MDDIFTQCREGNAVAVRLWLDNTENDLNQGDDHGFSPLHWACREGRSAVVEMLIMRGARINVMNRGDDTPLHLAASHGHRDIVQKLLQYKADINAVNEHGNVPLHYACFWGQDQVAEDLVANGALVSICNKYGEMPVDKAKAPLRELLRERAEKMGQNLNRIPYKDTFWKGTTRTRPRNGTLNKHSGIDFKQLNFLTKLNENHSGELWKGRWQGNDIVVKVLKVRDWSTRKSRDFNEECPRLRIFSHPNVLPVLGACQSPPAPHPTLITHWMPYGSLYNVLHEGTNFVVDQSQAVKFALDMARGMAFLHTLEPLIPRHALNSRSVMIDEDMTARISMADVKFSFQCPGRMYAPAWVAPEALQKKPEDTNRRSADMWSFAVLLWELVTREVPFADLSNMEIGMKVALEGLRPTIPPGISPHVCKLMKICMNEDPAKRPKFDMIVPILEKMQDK
The assay can be described thus: Selectivity interaction (ActivX KiNativ screen (kinase selectivity in THP-1 cell lysates)) EUB0000639a ILK. The assay is classed as subcellular. The conditions noted are these: lysate, at 0.2 µM.

In assay [12] the target is Cyclin-dependent kinase 18 (Homo sapiens) (UniProt Q07002). The experiment in a line: Selectivity interaction (ActivX KiNativ screen (kinase selectivity in THP-1 cell lysates)) EUB0000639a CDK18. The assay is classed as subcellular. The conditions noted are these: lysate, at 0.04 µM.
The target of assay [13] is Tyrosine-protein kinase CSK (Homo sapiens) (UniProt P41240). The assay can be described thus: Selectivity interaction (Kinase screening (Upstate/Millipore)) EUB0000604a CSK.
For assay [14], the target named is Dual specificity mitogen-activated protein kinase kinase 2 (Homo sapiens) (UniProt P36507). The settings on record: at 10 µM.
Assay [15] addresses Serine/threonine-protein kinase MRCK alpha (Homo sapiens) (UniProt Q5VT25). The assay can be described thus: Selectivity interaction (KinomeScan (DiscoverX)) EUB0001049a CDC42BPA. The settings on record: at 1 µM.
In assay [16] the target is Serine/threonine-protein kinase N3 (Homo sapiens) (UniProt Q6P5Z2). The experiment in a line: Selectivity interaction (ProQinase) EUB0000171b PKN3.
Assay [17] addresses Calcium/calmodulin-dependent protein kinase kinase 2 (Homo sapiens) (UniProt Q96RR4). The experiment in a line: Selectivity interaction (Kinase panel (DSF assay)) EUB0001559a CAMKK2.
Assay [18] concerns the target Platelet-derived growth factor receptor beta (Homo sapiens, UniProt P09619). The assay can be described thus: Selectivity interaction (Upstate Kinase Profiler service (Millipore)) EUB0000056c PDGFRB. The conditions noted are these: at 1 µM.
The target of assay [19] is Mitogen-activated protein kinase 14 (Homo sapiens, UniProt Q16539). The experiment in a line: Selectivity interaction (KinomeScan (DiscoverX)) EUB0000595a MAPK14. The settings on record: at 10 µM.

Serine/threonine-protein kinase N3 (Homo sapiens), sequence (Q6P5Z2 whole entry, looked up): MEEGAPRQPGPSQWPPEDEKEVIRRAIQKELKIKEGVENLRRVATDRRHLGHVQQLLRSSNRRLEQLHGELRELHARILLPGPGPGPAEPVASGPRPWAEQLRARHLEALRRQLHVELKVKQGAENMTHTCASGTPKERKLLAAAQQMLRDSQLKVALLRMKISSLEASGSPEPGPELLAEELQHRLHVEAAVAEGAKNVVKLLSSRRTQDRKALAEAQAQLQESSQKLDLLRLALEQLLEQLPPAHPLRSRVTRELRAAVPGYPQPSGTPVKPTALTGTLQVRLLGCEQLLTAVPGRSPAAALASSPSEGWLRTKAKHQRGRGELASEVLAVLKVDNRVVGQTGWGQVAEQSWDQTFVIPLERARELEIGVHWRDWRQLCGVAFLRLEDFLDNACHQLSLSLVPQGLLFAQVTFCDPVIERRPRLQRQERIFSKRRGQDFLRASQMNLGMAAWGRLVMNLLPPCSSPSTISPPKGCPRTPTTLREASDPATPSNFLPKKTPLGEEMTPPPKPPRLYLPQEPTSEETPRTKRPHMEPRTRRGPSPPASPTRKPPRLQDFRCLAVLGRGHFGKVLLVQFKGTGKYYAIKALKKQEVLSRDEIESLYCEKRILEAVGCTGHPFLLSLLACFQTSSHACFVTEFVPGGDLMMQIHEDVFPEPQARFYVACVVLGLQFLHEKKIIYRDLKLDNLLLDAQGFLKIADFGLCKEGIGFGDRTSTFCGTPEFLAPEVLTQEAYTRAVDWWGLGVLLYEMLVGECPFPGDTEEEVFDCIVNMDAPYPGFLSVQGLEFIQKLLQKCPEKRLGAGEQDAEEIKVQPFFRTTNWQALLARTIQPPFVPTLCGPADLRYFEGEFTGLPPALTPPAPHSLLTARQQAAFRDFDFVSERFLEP
Serine/threonine-protein kinase 25 (Homo sapiens), sequence (O00506 whole entry, looked up): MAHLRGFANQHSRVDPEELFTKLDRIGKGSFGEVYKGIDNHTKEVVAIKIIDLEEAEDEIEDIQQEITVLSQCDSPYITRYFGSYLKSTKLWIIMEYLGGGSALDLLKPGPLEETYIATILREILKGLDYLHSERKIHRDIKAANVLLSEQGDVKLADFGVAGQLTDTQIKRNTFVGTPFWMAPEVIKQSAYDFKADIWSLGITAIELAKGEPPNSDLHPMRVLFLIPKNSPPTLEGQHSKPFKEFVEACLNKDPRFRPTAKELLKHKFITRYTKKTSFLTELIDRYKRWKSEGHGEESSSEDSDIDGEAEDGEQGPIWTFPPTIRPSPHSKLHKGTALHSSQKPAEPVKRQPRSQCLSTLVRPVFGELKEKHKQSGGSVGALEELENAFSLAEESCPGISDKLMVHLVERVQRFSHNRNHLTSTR
Macrophage colony-stimulating factor 1 receptor (Homo sapiens), sequence (P07333 whole entry): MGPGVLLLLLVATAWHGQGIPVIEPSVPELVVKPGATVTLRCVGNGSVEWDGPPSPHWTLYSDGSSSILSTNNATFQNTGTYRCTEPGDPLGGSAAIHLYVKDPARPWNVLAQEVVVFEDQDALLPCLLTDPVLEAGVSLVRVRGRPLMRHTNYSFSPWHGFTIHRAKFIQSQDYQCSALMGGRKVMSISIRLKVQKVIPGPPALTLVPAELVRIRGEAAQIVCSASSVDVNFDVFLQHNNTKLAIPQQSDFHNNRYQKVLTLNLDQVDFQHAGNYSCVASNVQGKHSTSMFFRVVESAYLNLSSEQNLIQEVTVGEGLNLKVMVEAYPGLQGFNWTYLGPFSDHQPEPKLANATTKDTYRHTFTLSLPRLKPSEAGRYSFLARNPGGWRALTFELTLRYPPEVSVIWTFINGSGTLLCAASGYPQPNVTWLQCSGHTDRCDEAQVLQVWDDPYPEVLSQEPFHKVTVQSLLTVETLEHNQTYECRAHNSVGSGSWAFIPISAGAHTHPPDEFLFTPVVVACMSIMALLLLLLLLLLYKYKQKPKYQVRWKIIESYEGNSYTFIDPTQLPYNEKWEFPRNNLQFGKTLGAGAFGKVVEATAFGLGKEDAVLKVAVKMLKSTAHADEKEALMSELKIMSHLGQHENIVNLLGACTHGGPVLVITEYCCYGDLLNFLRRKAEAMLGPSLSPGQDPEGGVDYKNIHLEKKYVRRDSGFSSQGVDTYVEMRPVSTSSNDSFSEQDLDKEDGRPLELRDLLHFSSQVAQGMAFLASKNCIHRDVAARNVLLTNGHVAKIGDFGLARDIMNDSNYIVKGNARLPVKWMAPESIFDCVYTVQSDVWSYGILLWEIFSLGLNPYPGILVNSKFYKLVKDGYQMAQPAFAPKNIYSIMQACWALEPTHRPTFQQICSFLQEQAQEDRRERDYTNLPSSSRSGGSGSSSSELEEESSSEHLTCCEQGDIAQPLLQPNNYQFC
Platelet-derived growth factor receptor beta, sequence (P09619 whole entry): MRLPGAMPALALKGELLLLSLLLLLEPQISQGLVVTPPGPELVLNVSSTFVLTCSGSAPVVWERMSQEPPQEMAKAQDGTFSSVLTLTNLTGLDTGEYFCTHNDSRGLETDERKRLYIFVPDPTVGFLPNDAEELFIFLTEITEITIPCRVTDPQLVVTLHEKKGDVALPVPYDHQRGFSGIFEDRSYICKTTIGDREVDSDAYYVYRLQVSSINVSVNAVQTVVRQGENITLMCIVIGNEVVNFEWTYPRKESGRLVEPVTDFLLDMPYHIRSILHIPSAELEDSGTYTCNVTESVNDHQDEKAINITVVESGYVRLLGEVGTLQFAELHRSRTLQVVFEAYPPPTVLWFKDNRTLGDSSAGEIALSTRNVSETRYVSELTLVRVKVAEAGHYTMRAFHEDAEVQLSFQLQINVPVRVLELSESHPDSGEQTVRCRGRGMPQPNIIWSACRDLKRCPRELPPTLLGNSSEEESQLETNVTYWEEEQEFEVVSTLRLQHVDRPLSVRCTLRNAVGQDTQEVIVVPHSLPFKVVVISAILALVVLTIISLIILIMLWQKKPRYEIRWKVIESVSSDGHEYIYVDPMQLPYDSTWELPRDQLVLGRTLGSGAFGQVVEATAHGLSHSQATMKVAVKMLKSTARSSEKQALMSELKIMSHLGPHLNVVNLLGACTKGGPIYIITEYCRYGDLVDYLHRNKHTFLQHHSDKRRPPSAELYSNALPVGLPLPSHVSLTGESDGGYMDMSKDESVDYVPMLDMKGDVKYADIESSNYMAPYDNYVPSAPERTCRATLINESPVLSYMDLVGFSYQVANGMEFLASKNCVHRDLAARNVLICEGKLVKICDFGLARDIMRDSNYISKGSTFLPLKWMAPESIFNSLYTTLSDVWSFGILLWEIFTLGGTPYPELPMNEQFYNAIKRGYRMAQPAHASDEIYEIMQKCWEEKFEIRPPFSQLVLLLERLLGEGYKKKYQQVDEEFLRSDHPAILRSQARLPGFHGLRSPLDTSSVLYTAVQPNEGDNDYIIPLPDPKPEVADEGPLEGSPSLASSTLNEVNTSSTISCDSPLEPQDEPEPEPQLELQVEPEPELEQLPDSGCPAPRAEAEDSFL
Rho-associated protein kinase 2, sequence (O75116 whole entry, looked up): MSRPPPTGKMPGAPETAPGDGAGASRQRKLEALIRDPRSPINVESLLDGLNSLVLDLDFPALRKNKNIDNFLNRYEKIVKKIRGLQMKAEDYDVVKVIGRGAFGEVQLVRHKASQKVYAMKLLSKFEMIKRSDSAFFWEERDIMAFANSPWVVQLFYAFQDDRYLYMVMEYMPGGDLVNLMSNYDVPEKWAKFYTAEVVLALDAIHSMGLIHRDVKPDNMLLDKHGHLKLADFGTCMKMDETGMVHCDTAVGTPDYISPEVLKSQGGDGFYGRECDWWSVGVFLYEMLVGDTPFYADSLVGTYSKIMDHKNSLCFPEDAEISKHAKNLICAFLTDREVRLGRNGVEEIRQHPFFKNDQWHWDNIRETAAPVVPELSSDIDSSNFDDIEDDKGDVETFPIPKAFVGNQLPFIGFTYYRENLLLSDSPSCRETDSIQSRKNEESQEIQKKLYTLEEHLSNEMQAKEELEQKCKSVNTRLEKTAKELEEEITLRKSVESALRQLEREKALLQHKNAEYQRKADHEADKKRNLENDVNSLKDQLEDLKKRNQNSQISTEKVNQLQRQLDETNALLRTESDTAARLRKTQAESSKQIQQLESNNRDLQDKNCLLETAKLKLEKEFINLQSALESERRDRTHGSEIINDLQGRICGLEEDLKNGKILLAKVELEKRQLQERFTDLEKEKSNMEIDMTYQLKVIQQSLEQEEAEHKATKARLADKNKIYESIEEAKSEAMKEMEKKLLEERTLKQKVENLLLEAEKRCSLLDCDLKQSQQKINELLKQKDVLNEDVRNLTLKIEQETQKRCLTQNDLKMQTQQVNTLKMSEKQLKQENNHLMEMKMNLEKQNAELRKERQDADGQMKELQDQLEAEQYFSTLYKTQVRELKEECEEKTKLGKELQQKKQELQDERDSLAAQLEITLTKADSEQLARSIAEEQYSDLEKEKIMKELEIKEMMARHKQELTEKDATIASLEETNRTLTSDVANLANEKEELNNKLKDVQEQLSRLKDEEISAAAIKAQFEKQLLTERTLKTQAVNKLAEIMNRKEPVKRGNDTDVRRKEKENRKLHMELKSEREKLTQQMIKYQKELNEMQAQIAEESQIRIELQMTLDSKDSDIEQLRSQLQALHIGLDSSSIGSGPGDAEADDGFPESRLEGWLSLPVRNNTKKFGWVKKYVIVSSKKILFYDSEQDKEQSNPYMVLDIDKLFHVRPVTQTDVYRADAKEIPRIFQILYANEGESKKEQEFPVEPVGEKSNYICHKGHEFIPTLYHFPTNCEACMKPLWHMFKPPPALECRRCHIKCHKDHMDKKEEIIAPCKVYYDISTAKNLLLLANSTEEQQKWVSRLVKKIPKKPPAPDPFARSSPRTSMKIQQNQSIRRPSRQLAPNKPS

Consider `CN(C)C/C=C/C(=O)Nc1ccc(C(=O)N2CCCC(Nc3ncc(Cl)c(-c4c[nH]c5ccccc45)n3)C2)cc1` (stereo not given), for which the % of control in [1] came out at 93%.

In assay [2], `CNC(=O)Nc1ccc(-c2nc(N3CC4CCC(C3)O4)c3cnn(C4CCC5(CC4)OCCO5)c3n2)cc1` returned a % of control of 90%. In addition, in assay [3], the % of inhibition amounted to 5%. Consider `O=C(NOC[C@H](O)CO)c1ccc(F)c(F)c1Nc1ccc(I)cc1F`, for which the % of control in [4] came out at 95%. In [5], `CN(C)CCOc1ccc(-c2nc(-c3ccncc3)c(-c3ccc4c(c3)CC/C4=N\O)[nH]2)cc1` showed a % of control of 54%. In turn, `Nc1cnc(N2CCc3cc(S(=O)(=O)Nc4c(F)cc(Cl)cc4F)cc(N4CCCC4=O)c32)nc1` [TP-020n] showed a % of control in [6] of 100%. As for `N#Cc1cccc(-c2c[nH]c3ncnc(N4CCOCC4)c23)c1`, the % of inhibition stood at 65% in assay [7] and 12% in assay [8]. As to `CN(C)C(=O)Cn1cc(-c2ccc(-c3cncc4ccccc34)cc2)cn1`, the pIC50 (as a rule, the IC50 on a negative log10 scale, so that one unit is a factor of ten) in assay [9] was 8.77. For `CC[C@@H]1[C@H](F)C(=O)N[C@@H]1COc1nccc2cc(C(N)=O)c(OC)cc12` [ZIMLOVISERTIB], the % of inhibition is 7.1% in assay [10], -10.7% in assay [11] and 1.7% in assay [12].

Take `Cc1cnc(Nc2ccc(F)cc2Cl)nc1-c1c[nH]c(C(=O)N[C@H](CO)c2cccc(Cl)c2)c1`: in assay [13], the % of inhibition came out at 0%. In turn, `CCN(CC)CCCCNc1ncc2cc(-c3cc(OC)cc(OC)c3)c(NC(=O)NC(C)(C)C)nc2n1` returned a % of control in [14] of 100%. Take `COc1cc(Nc2nc(C)cc(-c3cnn4nc(OC)ccc34)n2)cc(C(F)(F)F)c1`: the % of control in [15] was found to be 92%.

Consider `C=CC(=O)Nc1cccc(C(=O)Nc2ccc(Nc3cc(-c4[nH]c(SC)nc4C)ccn3)cc2)c1`, for which the % of control in assay [16] (at 1 µM) came to 79%; in assay [16] (at 5 µM), 54%. As to `CN(C(=O)c1cnn2cccnc12)c1cc2c(cc1N1CCOCC1)C(=O)N(C[C@@H](F)C(C)(C)O)C2`, the dTM in assay [17] was 1.1 K. Consider `Cc1ccc(-c2ccc3c(ccc4sc5c(c43)NC[C@@H](C)NC5=O)n2)cn1`, for which the % of inhibition in assay [18] was -4%. In the case of `COCC(=O)NC/C=C/c1ccc2ncnc(Nc3ccc(Oc4ccc(C)nc4)c(C)c3)c2c1` [CP-724714], in [19], the % of control was determined as 100%.
